In patent publication US12297234B2, “Genetically encoded system for constructing and detecting biologically active agents” (The Regents of the University of Colorado, priority 2018, dated 2025):
pKi: −log10 of the molar value.

What was measured:
PTP1B [1] = assay: Mutational analysis of the inhibitor binding site (fractional change in inhibition); assay type: biochemical, H. sapiens; conditions: FIG. 24C
From the text: FIG. 24B illustrates exemplary disruptive mutations introduced at each site. Mutations were designed to alter the size and/or polarity of targeted residues. […] Error bars denote SE (propagated from n≥9 independent measurements of each V in Eq. 1).

PTP1B [2] = molecular target: T1, PTP1B (Homo sapiens, UniProt P18031); assay: PTP1B-catalyzed hydrolysis of pNPP in the presence of inhibitor; assay type: biochemical, H. sapiens
T1 construct: made in house; host or cells: E. coli BL21 (B121 [sic])
T1 sequence (P18031 1-435): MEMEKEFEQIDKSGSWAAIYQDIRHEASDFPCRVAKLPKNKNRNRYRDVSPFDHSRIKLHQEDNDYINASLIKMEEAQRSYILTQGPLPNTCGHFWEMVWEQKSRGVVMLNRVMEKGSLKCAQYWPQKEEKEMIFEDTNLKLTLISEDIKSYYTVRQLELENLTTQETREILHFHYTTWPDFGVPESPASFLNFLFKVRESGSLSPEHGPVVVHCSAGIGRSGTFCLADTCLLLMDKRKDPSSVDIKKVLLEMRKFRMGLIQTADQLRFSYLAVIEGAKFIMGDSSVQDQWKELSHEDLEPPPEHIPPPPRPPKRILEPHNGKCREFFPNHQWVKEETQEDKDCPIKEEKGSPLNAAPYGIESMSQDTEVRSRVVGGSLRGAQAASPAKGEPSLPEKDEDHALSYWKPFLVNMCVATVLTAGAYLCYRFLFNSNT
From the text: FIG. 14A illustrates Abietic acid. […] FIG. 14C illustrates Abietic acid (green) docked in the allosteric site of PTP1B. […] Inset highlights active site in black.
FIG. 16A-B illustrates exemplary terpenoids showing differences in stereochemistry, shape, size, and chemical functionality. FIG. 16A illustrates clockwise from abietic acid (1), neoabietic acid (2), levopimaric acid (3), dihydroabietic acid (4). […] No inhibitor. Error bars=standard error (n>5).
Lines show a fit to a model for mixed inhibition. FIG. 22D an exemplary illustration of this model, where the inhibitor (I) binds to the enzyme (E) and enzyme-substrate complex (ES) with different affinities.
Improved inhibitors. We assessed the ability of minor structural perturbations of abietadiene derivatives to yield improved inhibitors by comparing four structurally related (and commercially available) molecules (FIG. 16): abietic, neoabietic, levopimaric, and dihydroabietic acid.
Statistical Analysis of Kinetic Models. We evaluated four kinetic models of inhibition as described previously (19). In brief, we used an F-test to compare a two-parameter mixed model to several single-parameter models, and we used Akaike's Information Criterion (AIC, or Ai) to compare the single-parameter models to one another. […] Exemplary Estimation of IC50. […]

PTP1B [3] = molecular target: T1, PTP1B; assay: Binding-induced quenching of tryptophan fluorescence of PTP1B; set-up: species or system H. sapiens; conditions: FIG. 17C
From the text: FIG. 17A N-HSQC spectra of PTP1B (red) and PTP1B bound to abietic acid (blue). Inset: Crystal structure of PTP1B. […] Error bars represent standard error (n>5).
Binding-induced changes in the tryptophan fluorescence of PTP1B. A screen in which inhibition of PTP1B is linked to changes in tryptophan fluorescence (FIG. 21D) will enable rapid screening of moderately sized libraries (10^3-10^4)^27 in microtiter plates. Our use of binding-induced changes in tryptophan fluorescence is described in 5.6.

Which “effect of five mutations distributed across PTP1B on inhibition” value (shortened to “effect … on inhibition”) (PTP1B [1]) does the source give for `CCc1oc2cc(S(=O)(=O)Nc3ccc(S(=O)(=O)Nc4nccs4)cc3)ccc2c1C(=O)c1cc(Br)c(O)c(Br)c1` [BBR, 3-(3,5-Dibromo-4-hydroxy-benzoyl)-2-ethyl-benzofuran-6-sulfonicacid-(4-(thiazol-2-ylsulfamyl)-phenyl)-amide] here?
The value was “negligible effect”.

`Cl.O=C(O)C(=O)Nc1sc2c(c1C(=O)O)CCNC2` [TCS401, 2-[(Carbox-ycarbonyl)amino]-4,5,6,7-tetrahydro-thieno[2,3-c]pyridine-3-carboxylic acid hydrochloride] was tested. Which “effect … on inhibition” value (PTP1B [1]) did it give?
The value was “reduced inhibition”.

`CC(C)C1=CC2=CC[C@@H]3[C@](C)(CCC[C@@]3(C)C(=O)O)[C@H]2CC1` [abietic acid] was tested. Which pKi (PTP1B [2]; commercially available abietane-type acids, FIG. 16, read-out: K, (inhibition of PTP1B)) did it give?
The pKi was 3.60.

What about the “concentration detected by change in tryptophan fluorescence of PTP1B” value (PTP1B [3]) of the same molecule?
Its value is 50 µM.

What about the “effect … on inhibition” value (PTP1B [1]) of the same molecule?
The value was “reduced inhibition”.

For `CC(C)C1C=C2CCC3C(C)(C(=O)O)CCCC3(C)C2CC1` (stereo not drawn) [dihydroabietic acid], which “inhibition relative to abietic acid” value (PTP1B [2]) is on record?
Its value is “ten times more inhibitory than abietic acid”.
